Structures can show the parent of a compound that is named as a salt. Starred links: 1 amine or outer side, 2 acyl side, 3 side chain; linkers in the order of their positions; H or OH if unused. Positions of bridges follow the written chain, without caps; N, C: chain ends. Non-standard residues stand in square brackets, D forms with d. Residues, ends and D or L forms follow the SMILES beside them. Groups on a side chain read outwards from the residue. *: point of attachment. Me3N+CH2CH2(OCH2CH2)4CO = C[N+](C)(C)CCOCCOCCOCCOCCC(=O)*; Trp(7-CF3) = N[C@@H](Cc1c[nH]c2c(C(F)(F)F)cccc12)C(=O)O; Trp(7-Me) = Cc1cccc2c(C[C@H](N)C(=O)O)c[nH]c12; 3Oxa8azabicyclo(3.2.1)octane = C1CC2COCC1N2*; Hexanoyl(6-NMe3+) = C[N+](C)(C)CCCCCC(=O)*; 2Nal = N[C@@H](Cc1ccc2ccccc2c1)C(=O)O; AEF = NCCOc1ccc(C[C@H](N)C(=O)O)cc1; X19 = C[N+](C)(C)C[C@@H](CC(=O)O)N*; X10 = C[N+](C)(C)C[C@H](CC(=O)O)N*; dLys(Me) = CNCCCC[C@@H](N)C(=O)O; 3Pal = N[C@@H](Cc1cccnc1)C(=O)O; Lys(Me) = CNCCCC[C@H](N)C(=O)O; NHCH2CH2OCH2CH2OMe = COCCOCCN*; Pen = CC(C)(S)[C@H](N)C(=O)O; Suc = O=C(CCC(=O)[*:2])[*:1]; Thp = NC1(C(=O)O)CCOCC1; Dap = NC[C@H](N)C(=O)O; Me2NCH2CH2 = CN(C)CC*; Tfa = O=C(C(F)(F)F)*; Sar = CNCC(=O)O
experiment: Exposed Polar Surface Area (EPSA); format: physicochemical; conditions: SFC on Chirex 3014 column; sample 1 mM DMSO stock; read-out: EPSA
How it was run: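 Compounds, as 1 mM DMSO stock, were injected in duplicate onto an SFC Chirex 3014 column at 35 °C and eluted with a CO2/methanol (20 mM ammonium formate) gradient. EPSA values in Å^2 were derived from retention times using a linear fit to eight calibration standards, reinjected every 20 compounds.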

EPSA [A^2]	SMILES
171	CC(=O)NCCCC[C@@H]1NC(=O)[C@H](Cc2c[nH]c3c(C)cccc23)NC(=O)[C@H]([C@@H](C)O)NC(=O)[C@H](CC(N)=O)NC(=O)[C@@H](NC(C)=O)C(C)(C)SSC(C)(C)[C@@H](C(=O)N[C@@H](Cc2ccc(OCCN)cc2)C(=O)N[C@@H](Cc2ccc3ccccc3c2)C(=O)NC2(C(=O)N[C@@H](CCCCNC(=O)CCC(=O)N[C@H](CC(=O)O)C[N+](C)(C)C)C(=O)N[C@@H](CC(N)=O)C(=O)N[C@@H](Cc3cccnc3)C(=O)N(C)CC(N)=O)CCOCC2)NC1=O [compound 109] (Ac-[Pen]NT[Trp(7-Me)]K(Ac)[Pen][AEF][2Nal][Thp]K([Suc-X19])N[3Pal][Sar]-NH2; disulfide 1-6)
171	CC(=O)NCCCC[C@@H]1NC(=O)[C@H](Cc2c[nH]c3c(C)cccc23)NC(=O)[C@H]([C@@H](C)O)NC(=O)[C@H](CC(N)=O)NC(=O)[C@@H](NC(C)=O)C(C)(C)SSC(C)(C)[C@@H](C(=O)N[C@@H](Cc2ccc(OCCN)cc2)C(=O)N[C@@H](Cc2ccc3ccccc3c2)C(=O)NC2(C(=O)N[C@@H](CCCCNC(=O)CCC(=O)N[C@@H](CC(=O)O)C[N+](C)(C)C)C(=O)N[C@@H](CC(N)=O)C(=O)N[C@@H](Cc3cccnc3)C(=O)N(C)CC(N)=O)CCOCC2)NC1=O [compound 110] (Ac-[Pen]NT[Trp(7-Me)]K(Ac)[Pen][AEF][2Nal][Thp]K([Suc-X10])N[3Pal][Sar]-NH2; disulfide 1-6)
153	CC(=O)NCCCC[C@@H]1NC(=O)[C@H](Cc2c[nH]c3c(C)cccc23)NC(=O)[C@H]([C@@H](C)O)NC(=O)[C@H](CC(N)=O)NC(=O)[C@@H](NC(C)=O)C(C)(C)SSC(C)(C)[C@@H](C(=O)N[C@@H](Cc2ccc(OCCN)cc2)C(=O)N[C@@H](Cc2ccc3ccccc3c2)C(=O)NC2(C(=O)N[C@H](CCCCN(C)C(=O)CCOCCOCCOCCOCC[N+](C)(C)C)C(=O)N[C@@H](CC(N)=O)C(=O)N[C@@H](Cc3cccnc3)C(=O)N(C)CC(N)=O)CCOCC2)NC1=O [compound 111] (Ac-[Pen]NT[Trp(7-Me)]K(Ac)[Pen][AEF][2Nal][Thp][dLys(Me)](Me3N+CH2CH2(OCH2CH2)4CO)N[3Pal][Sar]-NH2; disulfide 1-6)
170	COCCOCCNC(=O)CN(C)C(=O)[C@H](Cc1cccnc1)NC(=O)[C@H](CC(N)=O)NC(=O)[C@H](CCC(=O)O)NC(=O)C1(NC(=O)[C@H](Cc2ccc3ccccc3c2)NC(=O)[C@H](Cc2ccc(OCCN)cc2)NC(=O)[C@H]2NC(=O)[C@H](CCCCNC(C)=O)NC(=O)[C@H](Cc3c[nH]c4c(C)cccc34)NC(=O)[C@H]([C@@H](C)O)NC(=O)[C@H](CC(N)=O)NC(=O)[C@@H](NC(C)=O)C(C)(C)SSC2(C)C)CCOCC1 [compound 116] (Ac-[Pen]NT[Trp(7-Me)]K(Ac)[Pen][AEF][2Nal][Thp]EN[3Pal][Sar]-NHCH2CH2OCH2CH2OMe; disulfide 1-6 (inferred))

Continued, compound first:

SMILES	EPSA [A^2]
CC(=O)N(C)CCCC[C@@H]1NC(=O)[C@H](Cc2c[nH]c3c(C(F)(F)F)cccc23)NC(=O)[C@H]([C@@H](C)O)NC(=O)[C@H](CC(=O)N(C)C)NC(=O)[C@@H](NC(=O)C(F)(F)F)C(C)(C)SSC(C)(C)[C@@H](C(=O)N[C@@H](Cc2ccc(OCCN(C)C)cc2)C(=O)N[C@@H](Cc2ccc3ccccc3c2)C(=O)NC2(C(=O)N[C@@H](CCCCN(C)C(C)=O)C(=O)N[C@@H](CC(N)=O)C(=O)N[C@@H](Cc3cccnc3)C(=O)N(C)CC(=O)N(C)C)CCOCC2)NC1=O [compound 95, CF3CO-Pen(3)-N(N(Me)2)-T-7CF3W-K(NMeAc)-Pen(3)-AEF(N(Me)2)-2Nal-THP-K(NMeAc)-N-3Pya-Sar-CON(Me)2] (Tfa-[Pen]D(NMe2)T[Trp(7-CF3)][Lys(Me)](Ac)[Pen]Y(Me2NCH2CH2)[2Nal][Thp][Lys(Me)](Ac)N[3Pal][Sar]-NMe2; disulfide 1-6 (inferred))	131
CC(=O)NCCCC[C@@H]1NC(=O)[C@H](Cc2c[nH]c3c(C)cccc23)NC(=O)[C@H]([C@@H](C)O)NC(=O)[C@H](CC(N)=O)NC(=O)[C@@H](NC(=O)CCCCC[N+](C)(C)C)C(C)(C)SSC(C)(C)[C@@H](C(=O)N[C@@H](Cc2ccc(OCCN)cc2)C(=O)N[C@@H](Cc2ccc3ccccc3c2)C(=O)NC2(C(=O)N[C@@H](CNC(C)=O)C(=O)N[C@@H](CC(N)=O)C(=O)N[C@@H](Cc3cccnc3)C(=O)N(C)CC(N)=O)CCOCC2)NC1=O [compound 99] ({Hexanoyl(6-NMe3+)}-[Pen]NT[Trp(7-Me)]K(Ac)[Pen][AEF][2Nal][Thp][Dap](Ac)N[3Pal][Sar]-NH2; disulfide 1-6 (inferred))	164
CC(=O)NCCCC[C@@H]1NC(=O)[C@H](Cc2c[nH]c3c(C)cccc23)NC(=O)[C@H]([C@@H](C)O)NC(=O)[C@H](CC(N)=O)NC(=O)[C@@H](NC(C)=O)C(C)(C)SSC(C)(C)[C@@H](C(=O)N[C@@H](Cc2ccc(OCCN(C)C)cc2)C(=O)N[C@@H](Cc2ccc3ccccc3c2)C(=O)NC2(C(=O)N[C@@H](CNC(C)=O)C(=O)N[C@@H](CC(N)=O)C(=O)N[C@@H](Cc3cccnc3)C(=O)N(C)CC(N)=O)CCOCC2)NC1=O [compound 102] (Ac-[Pen]NT[Trp(7-Me)]K(Ac)[Pen]Y(Me2NCH2CH2)[2Nal][Thp][Dap](Ac)N[3Pal][Sar]-NH2; disulfide 1-6)	156
CC(=O)NCCCC[C@@H]1NC(=O)[C@H](Cc2c[nH]c3c(C)cccc23)NC(=O)[C@H]([C@@H](C)O)NC(=O)[C@H](CC(N)=O)NC(=O)[C@@H](NC(=O)[C@@H](CCCCNC(=O)CCC(=O)N[C@H](CC(=O)O)C[N+](C)(C)C)NC(C)=O)C(C)(C)SSC(C)(C)[C@@H](C(=O)N[C@@H](Cc2ccc(OCCN)cc2)C(=O)N[C@@H](Cc2ccc3ccccc3c2)C(=O)NC2(C(=O)N[C@@H](CCCCNC(C)=O)C(=O)N[C@@H](CC(N)=O)C(=O)N[C@@H](Cc3cccnc3)C(=O)N(C)CC(N)=O)CCOCC2)NC1=O [compound 107] (Ac-[dK]([Suc-X19])[Pen]NT[Trp(7-Me)]K(Ac)[Pen][AEF][2Nal][Thp]K(Ac)N[3Pal][Sar]-NH2; disulfide 2-7)	173
CC(=O)NCCCC[C@@H]1NC(=O)[C@H](Cc2c[nH]c3c(C)cccc23)NC(=O)[C@H]([C@@H](C)O)NC(=O)[C@H](CC(N)=O)NC(=O)[C@@H](NC(=O)[C@@H](CCCCNC(=O)CCC(=O)N[C@@H](CC(=O)O)C[N+](C)(C)C)NC(C)=O)C(C)(C)SSC(C)(C)[C@@H](C(=O)N[C@@H](Cc2ccc(OCCN)cc2)C(=O)N[C@@H](Cc2ccc3ccccc3c2)C(=O)NC2(C(=O)N[C@@H](CCCCNC(C)=O)C(=O)N[C@@H](CC(N)=O)C(=O)N[C@@H](Cc3cccnc3)C(=O)N(C)CC(N)=O)CCOCC2)NC1=O [compound 108] (Ac-[dK]([Suc-X10])[Pen]NT[Trp(7-Me)]K(Ac)[Pen][AEF][2Nal][Thp]K(Ac)N[3Pal][Sar]-NH2; disulfide 2-7)	173
CC(=O)NCCCC[C@@H]1NC(=O)[C@H](Cc2c[nH]c3c(C)cccc23)NC(=O)[C@H]([C@@H](C)O)NC(=O)[C@H](CC(N)=O)NC(=O)[C@@H](NC(C)=O)C(C)(C)SSC(C)(C)[C@@H](C(=O)N[C@@H](Cc2ccc(OCCN)cc2)C(=O)N[C@@H](Cc2ccc3ccccc3c2)C(=O)NC2(C(=O)N[C@@H](CCC(=O)O)C(=O)N[C@@H](CC(N)=O)C(=O)N[C@@H](Cc3cccnc3)C(=O)N(C)CC(=O)N3C4CCC3COC4)CCOCC2)NC1=O [compound 115] (Ac-[Pen]NT[Trp(7-Me)]K(Ac)[Pen][AEF][2Nal][Thp]EN[3Pal][Sar]-{3Oxa8azabicyclo(3.2.1)octane}; disulfide 1-6)	171
